US5563155A, “Individual stereosiomers of 7-[3-(aminoalkyl)-1-pyrrolidinyl]-quinolones and naphthyridones as antibacterial agents” (Warner-Lambert Company, priority 1995, dated 1996)
In brackets after ≈: the same amount, converted by molar mass. Like-named read-outs stand apart in the source and are kept apart here.

How the values were obtained:
[1] = tested on: Ent. cloacae MA2646; experiment: in vitro antibacterial activity, microtitration dilution (MIC), Ent. cloacae MA2646; format: cell-based; settings: Enterobacter cloacae, read-out: minimum inhibiting concentration (MIC)
Method in brief: (§1)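 Readout: lowest compound concentration inhibiting growth (MIC, μg/mL), measured by serial dilution in microtitration format.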

[2] = tested on: Esch. coli Vogel; experiment: in vitro antibacterial activity, microtitration dilution (MIC), Esch. coli Vogel; format: cell-based; settings: Escherichia coli, read-out: minimum inhibiting concentration (MIC)
Method in brief: as §1

[3] = tested on: Klebs. pneumoniae MGH-2; experiment: in vitro antibacterial activity, microtitration dilution (MIC), Klebs. pneumoniae MGH-2; format: cell-based; settings: Klebsiella pneumoniae, MGH2, read-out: minimum inhibiting concentration (MIC)
Method in brief: as §1

[4] = tested on: Prot. rettgeri M 1771; experiment: in vitro antibacterial activity, microtitration dilution (MIC), Prot. rettgeri M 1771; format: cell-based; settings: Providencia rettgeri, M1771, read-out: minimum inhibiting concentration (MIC)
Method in brief: as §1

[5] = tested on: Pseud. aeruginosa UI-18; experiment: in vitro antibacterial activity, microtitration dilution (MIC), Pseud. aeruginosa UI-18; format: cell-based; settings: Pseudomonas aeruginosa, UI18, read-out: minimum inhibiting concentration (MIC)
Method in brief: as §1

[6] = tested on: Staph. aureus H 228; experiment: in vitro antibacterial activity, microtitration dilution (MIC), Staph. aureus H 228; format: cell-based; settings: Staphylococcus aureus, H228, read-out: minimum inhibiting concentration (MIC)
Method in brief: as §1

[7] = tested on: Staph. aureus UC-76; experiment: in vitro antibacterial activity, microtitration dilution (MIC), Staph. aureus UC-76; format: cell-based; settings: Staphylococcus aureus, UC76, read-out: minimum inhibiting concentration (MIC)
Method in brief: as §1

[8] = tested on: Strep. faecalis MGH-2; experiment: in vitro antibacterial activity, microtitration dilution (MIC), Strep. faecalis MGH-2; format: cell-based; settings: Enterococcus faecalis, MGH2, read-out: minimum inhibiting concentration (MIC)
Method in brief: as §1

[9] = tested on: Strep. pheumoniae SV-1; experiment: in vitro antibacterial activity, microtitration dilution (MIC), Strep. pneumoniae SV-1; format: cell-based; settings: Streptococcus pneumoniae, SV1, read-out: minimum inhibiting concentration (MIC)
Method in brief: as §1

[10] = tested on: Strep. pyogenes C-203; experiment: in vitro antibacterial activity, microtitration dilution (MIC), Strep. pyogenes C-203; format: cell-based; settings: Streptococcus pyogenes, C203, read-out: minimum inhibiting concentration (MIC)
Method in brief: as §1

[11] = tested on: Esch. coli Vogel; experiment: median protective dose in mice given lethal systemic infections, Esch. coli Vogel; format: in vivo; settings: Escherichia coli, single dose at time of challenge, read-out: median protective dose (PD50)
Procedure: (§2) The in vivo activity is obtained when the compounds are tested according to the procedure of Miller, et al (Proc. Soc. Exp. Biol. Med. 57, 261, 1944). The median protective dose (PD50) was determined in mice given lethal systemic infections. Single doses of compound were given at time of challenge.
(§3) By use of the above methods, the following minimum inhibiting concentration values (MICs in μg/mL), PD50 's in mg/kg, no effect phototoxicity dose in mg/kg and the cytotoxicity IC50 in μg/mL were obtained for representative enantiomers of the invention and compounds of the prior art as shown in the table.
(§4) The in vivo data as PD50 s are reported below the line of MICs for the same compound.

[12] = tested on: Strep. pyogenes C-203; experiment: median protective dose in mice given lethal systemic infections, Strep. pyogenes C-203; format: in vivo; settings: Streptococcus pyogenes, single dose at time of challenge, read-out: median protective dose (PD50)
Procedure: as §2, §3, §4

[13] = in vivo; set-up: species or system mice; settings: mouse, po
Procedure: The phototoxicity data is obtained using depilated mice. The compound was administered orally each day for four successive days, followed each day by 3 hours of UVA radiation. The mice were examined for any positive signs (redness, erythema) relative to control animals. The no effect dose and the 50% effect dose were determined. By use of the above methods, the following minimum inhibiting concentration values (MICs in μg/mL), PD50 's in mg/kg, no effect phototoxicity dose in mg/kg and the cytotoxicity IC50 in μg/mL were obtained for representative enantiomers of the invention and compounds of the prior art as shown in the table.

[14] = cytotoxicity, hamster V-79 cells, colony reduction; format: cell-based; settings: 3 hours treatment, colonies counted after 5 days, read-out: Cytotox (cytotoxicity IC50)
Procedure: The cytotoxicity data is obtained using hamster V-79 cells. The cells were suspended in tissue culture medium and grown overnight. Cells were treated with drug for 3 hours, washed free of drug and then replated, and the colonies counted after 5 days. The concentration of drug that reduced colones by 50% relative to control was recorded.
as §3

[15] = tested on: Strep. pheumoniae SV-1; experiment: median protective dose in mice given lethal systemic infections, Strep. pneumoniae SV-1; format: in vivo; settings: Streptococcus pneumoniae, single dose at time of challenge, read-out: median protective dose (PD50)
Procedure: as §2, §3, §4

SMILES	MIC [1] [µg/mL]	MIC [2] [µg/mL]	MIC [3] [µg/mL]	MIC [4] [µg/mL]	MIC [5] [µg/mL]	MIC [6] [µg/mL]	MIC [7] [µg/mL]	MIC [8] [µg/mL]	MIC [9] [µg/mL]	MIC [10] [µg/mL]	ED50 ([11]; PO) [mg/kg]	ED50 ([11]; SC) [mg/kg]	ED50 ([12]; C203, PO) [mg/kg]	ED50 ([12]; C203, SC) [mg/kg]	NOAEL at 96 h [13] [mg/kg]	CC50 at 3 h [14] [µg/mL]	ED50 ([15]; SV1, PO) [mg/kg]	ED50 ([15]; SV1, SC) [mg/kg]
CN[C@H](C)[C@@H]1CCN(c2c(F)c(N)c3c(=O)c(C(=O)O)cn(C4CC4)c3c2F)C1 [Example 41, 3R,1R-5-amino-1-cyclopropyl-6,8-difluoro-7-[3-(1-N-methylaminoethyl)-1-pyrrolidinyl]-1,4-dihydro-4-oxo-3-quinoline carboxylic acid]	0.05 (≈ 0.123 µM)	0.05 (≈ 0.123 µM)	0.1 (≈ 0.246 µM)	0.2 (≈ 0.492 µM)	0.8 (≈ 1.97 µM)	0.006 (≈ 0.0148 µM)	0.003 (≈ 0.00738 µM)	0.013 (≈ 0.032 µM)	0.006 (≈ 0.0148 µM)	0.006 (≈ 0.0148 µM)	3	2	2	0.7	30	33 (≈ 81.2 µM)		
CCN[C@@H](C)[C@@H]1CCN(c2c(F)cc3c(=O)c(C(=O)O)cn(C4CC4)c3c2OC)C1 [Example 18, 3R,1S-1-cyclopropyl-6-fluoro-7-[3-(1-N-ethylaminoethyl)-1-pyrrolidinyl]-8-methoxy-1,4-dihydro-4-3-quinolinecarboxylic acid]	0.1 (≈ 0.24 µM)	0.1 (≈ 0.24 µM)	0.2 (≈ 0.479 µM)	0.4 (≈ 0.958 µM)	3.1 (≈ 7.43 µM)	0.013 (≈ 0.0311 µM)	0.003 (≈ 0.00719 µM)	0.025 (≈ 0.0599 µM)	0.005 (≈ 0.012 µM)	0.006 (≈ 0.0144 µM)	5	2	0.5	0.2	> 100	110 (≈ 263 µM)		
CN[C@@H](C)[C@@H]1CCN(c2c(F)cc3c(=O)c(C(=O)O)cn(C4CC4)c3c2OC)C1 [Example 36, 3R,1S-1-cyclopropyl-6-fluoro-7-[3-(1-N-methylaminoethyl)-1-pyrrolidinyl]-8-methoxy-1,4-dihydro-4-oxo-3-quinolinecarboxylic acid]	0.05 (≈ 0.124 µM)	0.05 (≈ 0.124 µM)	0.1 (≈ 0.248 µM)	0.2 (≈ 0.496 µM)	0.8 (≈ 1.98 µM)	0.013 (≈ 0.0322 µM)	0.013 (≈ 0.0322 µM)	0.025 (≈ 0.062 µM)	0.013 (≈ 0.0322 µM)	0.003 (≈ 0.00744 µM)	4	1	1	0.1	> 100	33 (≈ 81.8 µM)		
C[C@@H]([C@@H]1CCN(c2cc3c(cc2F)c(=O)c(C(=O)O)cn3C2CC2)C1)N(C)C [Example 73]	0.2 (≈ 0.516 µM)	0.1 (≈ 0.258 µM)	0.2 (≈ 0.516 µM)	0.8 (≈ 2.06 µM)	1.6 (≈ 4.13 µM)	0.1 (≈ 0.258 µM)	0.05 (≈ 0.129 µM)	0.1 (≈ 0.258 µM)	0.05 (≈ 0.129 µM)	0.05 (≈ 0.129 µM)	5	4	4	4	< 30			
C[C@H](N)[C@@H]1CCN(c2nc3c(cc2F)c(=O)c(C(=O)O)cn3-c2ccc(F)cc2F)C1 [Example 43, 3R,1S-7-[3(1-aminoethyl)-1-pyrrolidinyl]-1-(2,4-difluorophenyl)-6-fluoro-1,4-dihydro-4-oxo-1,8-naphthyridine-3-carboxylic acid]	0.2 (≈ 0.463 µM)	0.1 (≈ 0.231 µM)	0.2 (≈ 0.463 µM)	0.4 (≈ 0.925 µM)	0.8 (≈ 1.85 µM)	0.05 (≈ 0.116 µM)	0.006 (≈ 0.0139 µM)	0.025 (≈ 0.0578 µM)	0.006 (≈ 0.0139 µM)	0.006 (≈ 0.0139 µM)	3.5	1	1	1	> 100	280 (≈ 648 µM)	3	3
